Laboratory results from PMC11024961, “Effects of Chrysin and Chrysin-7-sulfate on Ochratoxin A-Albumin Interactions and on the Plasma and Kidney Levels of the Mycotoxin in Rats” (ACS Omega, 2024).
Several values for one entry are separate records, joined by “and”; a condition that tells them apart may be missing. Equal entries are not always repeated.

Experiments:
[1] = Plasma and kidney levels of OTA after single i.v. OTA with or without C7S; assay type: in vivo, Wistar rats
Experimental: (§1) Male Wistar rats were obtained from Toxi-Coop Ltd. (Budapest, Hungary). The animals (weighing 150–250 g) were kept at 24 ± 2 °C, at 50–60% relative air humidity, and on a 12 h light/dark cycle in the Laboratory Animal House of the Department of Pharmacology and Pharmacotherapy (Medical School, University of Pécs) under standard pathogen-free conditions and were provided with standard rat chow and tap water ad libitum.
Stock solution of OTA (10 mg/mL) was prepared in 96 v/v% ethanol (Reanal, Budapest, Hungary). C7S (90 mg/mL) were dissolved in dimethyl sulfoxide (Fluka, Charlotte, NC, US). In the i.v. experiments, the final concentration of dimethyl sulfoxide was uniformly 1.67 v/v % in each solution administered. In the per os experiments, CHR was suspended in physiological saline by using a mortar and pestle.
In the first experiment, rats were weighed and then treated intravenously through the tail vein with OTA (50 μg/kg, 2 mL/kg, in physiological saline) without or with C7S (1 or 3 mg/kg). Before and after the treatment, rats consumed feed and water ad libitum. Blood samples (approximately 100–150 μL) were collected from the tail vein into heparinized tubes after 2 and 6 h. After 24 h, blood (cardiac puncture) and kidney samples were collected. Plasma and tissue samples were stored at −80 °C until analysis.
Sample preparation was performed as it has been previously reported.[48] Briefly, after centrifugation, rat plasma was diluted with a 2-fold volume of acetonitrile, and then samples were vortexed, sonicated for 3 min, and centrifuged for 5 min at 14,000g and 4 °C. Thereafter, a 2-fold volume of HPLC eluent (see in Section 2.6) was added to the supernatant. These samples were directly analyzed by HPLC-FLD (see Section 2.6).
After weighing, kidney samples were homogenized with a 2-fold amount of water employing a Potter–Elvehjem tissue homogenizer. Then, 100 μL of homogenate was diluted with 2-fold volume of acetonitrile, after which these samples were treated the same way as plasma samples (vortexing, sonication, centrifugation, 2-fold dilution with HPLC eluent, and then HPLC-FLD analysis).
OTA was quantified with the previously reported HPLC-FLD method,[48] employing an integrated HPLC system (Jasco, Tokyo, Japan): autosampler (AS-4050), binary pump (PU-4180), fluorescence detector (FP-920), and ChromNAV2 software. Briefly, the isocratic elution was performed with 1.0 mL/min flow rate at room temperature, using sodium borate buffer (0.01 M, pH 10.0) and ACN (87:13 v/v%) as the mobile phase. […] The fluorescence detection of the mycotoxin was carried out at 383 and 446 nm excitation and emission wavelengths, respectively.

[2] = molecular target: T1, human serum albumin (HSA) (Homo sapiens, UniProt P02768); assay: Fluorescence emission intensity of OTA-HSA with ligands; assay type: binding; conditions: ligand 0–30 μM; OTA 1.0 μM, HSA 1.5 μM; λex 393 nm, λem 446 nm; inner-filter corrected
T1 construct: purchased Merck (Darmstadt, Germany) A1653
T1 sequence (P02768 25-609): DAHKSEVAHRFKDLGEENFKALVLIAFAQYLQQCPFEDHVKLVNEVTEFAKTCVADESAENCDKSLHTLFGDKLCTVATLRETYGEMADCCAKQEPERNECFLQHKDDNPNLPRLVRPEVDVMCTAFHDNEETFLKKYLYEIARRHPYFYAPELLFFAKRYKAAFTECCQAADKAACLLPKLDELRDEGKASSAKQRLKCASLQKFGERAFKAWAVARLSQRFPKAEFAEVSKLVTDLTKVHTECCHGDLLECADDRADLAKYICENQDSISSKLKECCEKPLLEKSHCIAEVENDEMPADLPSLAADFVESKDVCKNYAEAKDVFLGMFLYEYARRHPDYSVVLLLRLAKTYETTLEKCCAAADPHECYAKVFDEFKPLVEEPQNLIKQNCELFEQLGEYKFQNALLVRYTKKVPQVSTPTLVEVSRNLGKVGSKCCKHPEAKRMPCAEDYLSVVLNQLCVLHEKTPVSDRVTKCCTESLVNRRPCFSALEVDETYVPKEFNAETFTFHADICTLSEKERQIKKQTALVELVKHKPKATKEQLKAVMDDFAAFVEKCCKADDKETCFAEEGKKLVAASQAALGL
Experimental: (§2) Fluorescence spectroscopic studies were carried out using a Hitachi F-4500 spectrofluorometer (Tokyo, Japan). Fluorescence emission spectra were collected, and fluorescence anisotropy values were determined in phosphate-buffered saline (PBS, pH 7.4) at room temperature, using 393 and 446 nm as excitation and emission wavelengths, respectively. […] Absorption spectra of ligand molecules were also recorded employing a Jasco V730 UV–vis spectrophotometer (Tokyo, Japan), after which their inner-filter effects were corrected using the following equation:[28],[29] [drawing 1] 1 where Icor and Iobs are the corrected and the observed fluorescence emission intensities at 446 nm, respectively, while Aex and Aem are the absorbance values of the competitor ligand molecules at 393 and 446 nm, respectively.

[3] = molecular target: T1, human serum albumin (HSA); assay: Fluorescence anisotropy of OTA-HSA with ligands; assay type: binding
Experimental: as §2
(§3) Fluorescence anisotropy (r) values were calculated employing the following equation:[10],[30] [drawing 2] 2 where IVV is the emission intensity measured in vertical positions of the polarizers at both the presample and the postsample sites, IVH is the emission intensity measured in vertical position of the polarizer at presample site and in horizontal position of the polarizer at the postsample site, while G is the instrumental factor (showing the preference of the emission optics for the horizontal orientation to the vertical orientation).

rat serum albumin (RSA) [4] = molecular target: T2, rat serum albumin (RSA) (Rattus norvegicus, UniProt P02770); assay: Fluorescence emission intensity of OTA-RSA with ligands; assay type: binding; conditions: ligand 0–30 μM; OTA 1.0 μM, RSA 1.5 μM; λex 393 nm, λem 446 nm; inner-filter corrected
T2 construct: purchased Merck (Darmstadt, Germany) A6272
T2 sequence (P02770 25-608): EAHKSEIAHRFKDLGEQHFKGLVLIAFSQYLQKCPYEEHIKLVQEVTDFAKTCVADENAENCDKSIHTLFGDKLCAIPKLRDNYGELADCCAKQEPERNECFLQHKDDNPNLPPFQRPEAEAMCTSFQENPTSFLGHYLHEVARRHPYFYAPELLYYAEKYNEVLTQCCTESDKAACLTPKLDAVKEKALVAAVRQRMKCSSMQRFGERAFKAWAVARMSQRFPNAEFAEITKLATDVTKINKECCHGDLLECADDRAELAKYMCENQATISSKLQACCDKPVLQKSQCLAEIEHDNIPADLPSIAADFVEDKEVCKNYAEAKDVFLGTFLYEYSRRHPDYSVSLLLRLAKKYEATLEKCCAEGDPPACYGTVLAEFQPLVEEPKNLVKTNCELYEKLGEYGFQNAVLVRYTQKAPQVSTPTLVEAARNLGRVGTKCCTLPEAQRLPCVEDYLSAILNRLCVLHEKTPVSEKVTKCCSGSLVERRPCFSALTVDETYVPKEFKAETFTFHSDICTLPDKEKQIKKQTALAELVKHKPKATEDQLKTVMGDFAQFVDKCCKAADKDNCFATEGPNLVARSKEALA
Experimental: as §2

HSA [5] = system: HSA; design: method as in PMID 30562928; conditions: cited from earlier work
rat serum albumin (RSA) [6] = molecular target: T2, rat serum albumin (RSA); assay: biochemical; assay type: binding
Experimental: (§4) Albumin (with the bound ligand molecules) was sedimented with ultracentrifugation, employing the previously described method.[26],[29],[31] […] These solutions (900 μL) were centrifuged for 16 h at 170,000g and 20 °C, using an Optima MAX-XP tabletop ultracentrifuge (with an MLA-130 fixed-angle rotor; Beckman Coulter, Brea, CA, US). After 200 μL of the protein-free supernatant was carefully aspirated, the free unbound concentration of OTA was directly analyzed from the supernatant by HPLC-FLD (details in Section 2.6). Association constants (Ka) of OTA-HSA and OTA-RSA complexes were calculated based on the following equation, assuming 1:1 stoichiometry of the complex formation:[29],[32] [drawing 3] 3 where [OTA] is the concentration of the unbound free mycotoxin, [SA] is the concentration of the unbound free serum albumin, while [OTA-SA] is the molar concentration of the mycotoxin-albumin complex in the solution.
(§5) OTA was quantified with the previously reported HPLC-FLD method,[48] employing an integrated HPLC system (Jasco, Tokyo, Japan): autosampler (AS-4050), binary pump (PU-4180), fluorescence detector (FP-920), and ChromNAV2 software. Briefly, the isocratic elution was performed with 1.0 mL/min flow rate at room temperature, using sodium borate buffer (0.01 M, pH 10.0) and ACN (87:13 v/v%) as the mobile phase. Samples (20 μL) were driven through a SecurityGuard precolumn (C18, 4.0 × 3.0 mm; Phenomenex, Torrance, CA, US) linked to a Kinetex EVO (C18, 150 × 4.6 mm, 5 μm; Phenomenex) analytical column. The fluorescence detection of the mycotoxin was carried out at 383 and 446 nm excitation and emission wavelengths, respectively.

[7] = molecular target: T1, human serum albumin (HSA); assay: biochemical; assay type: binding; conditions: for unbound fraction of OTA with HSA: OTA 1.0 μM, HSA 1.5 μM, PBS pH 7.4
Experimental: as §4, §5

[8] = Plasma and kidney levels of OTA after repeated peroral OTA with or without CHR; assay type: in vivo, Wistar rats; conditions: CHR 1 or 3 mg/kg/day per os with OTA 100 μg/kg/day, three days; sampled on the fourth day
Experimental: as §1
Stock solution of OTA (10 mg/mL) was prepared in 96 v/v% ethanol (Reanal, Budapest, Hungary). C7S (90 mg/mL) were dissolved in dimethyl sulfoxide (Fluka, Charlotte, NC, US). In the i.v. experiments, the final concentration of dimethyl sulfoxide was uniformly 1.67 v/v % in each solution administered. In the per os experiments, CHR was suspended in physiological saline by using a mortar and pestle. […]
Sample preparation was performed as it has been previously reported.[48] […] These samples were directly analyzed by HPLC-FLD (see Section 2.6). […]
OTA was quantified with the previously reported HPLC-FLD method,[48] employing an integrated HPLC system (Jasco, Tokyo, Japan): autosampler (AS-4050), binary pump (PU-4180), fluorescence detector (FP-920), and ChromNAV2 software. […] The fluorescence detection of the mycotoxin was carried out at 383 and 446 nm excitation and emission wavelengths, respectively.

rat serum albumin (RSA) [9] = molecular target: T2, rat serum albumin (RSA); assay: Fluorescence anisotropy of OTA-RSA with ligands; assay type: binding; conditions: ligand 0–30 μM; OTA 1.0 μM, RSA 1.5 μM
Experimental: as §2, §3

[10] = design: method as in PMID 37649524; conditions: cited from earlier work
HSA [11] = conditions: cited from earlier work
rat serum albumin (RSA) [12] = molecular target: T2, rat serum albumin (RSA); design: method as in doi:10.1016/j.jlumin.2013.08.059; conditions: cited from earlier work
[13] = system: Bovine serum albumin (BSA); design: method as in doi:10.1016/j.jlumin.2013.08.059; conditions: cited from earlier work
[14] = C7S 3 mg/kg i.v. with OTA 50 μg/kg i.v., 24 h
[15] = ligand 0–30 μM, OTA 1.0 μM, HSA 1.5 μM

Molecule	effect on emission signal of OTA-HSA complex, in words [2]	effect on fluorescence anisotropy of OTA-HSA, in words [3, 15]	effect on emission signal of OTA-RSA complex, in words (rat serum albumin (RSA) [4])	displacement of OTA from RSA (free fraction), in words (rat serum albumin (RSA) [6]; ligand 0–30 μM, overall)	displacement of OTA from HSA (free fraction), in words ([7]; ligand 0–30 μM, overall)	effect on fluorescence anisotropy of OTA-RSA, in words (rat serum albumin (RSA) [9])	displacement of OTA from HSA (free fraction), in words ([7]; ligand 30 μM)	effect on fluorescence anisotropy of OTA-HSA, in words ([3]; ligand 15 μM)	other results
O=c1cc(-c2ccccc2)oc2cc(OS(=O)(=O)O)cc(O)c12 [C7S, chrysin-7-sulfate]	strong decreases	marked reduction	strong decreases	strongly disrupted	strongly interfered	–	–	–	effect on plasma levels of OTA, in words ([1]; C7S 1 mg/kg i.v. with OTA 50 μg/kg i.v., 2, 6 and 24 h): did not induce significant changes; effect on kidney levels of OTA, in words ([1]; C7S 1 mg/kg i.v. with OTA 50 μg/kg i.v., 24 h): did not affect; effect on kidney levels of OTA, in words [1, 14]: slightly decreased; effect on plasma levels of OTA, in words [1, 14]: not statistically significant; affinity to HSA, fold higher than CHR (HSA [5]): 3 fold; displacement of OTA from RSA (free fraction), in words (rat serum albumin (RSA) [6]; ligand 30 μM): almost completely displaced; fold lower Ka of OTA-RSA in the presence of the ligand (rat serum albumin (RSA) [6]; ligand 30 μM): approximately 100 fold; unbound fraction of OTA with HSA ([7]; ligand 15 μM): 55%; fold lower Ka of OTA-HSA in the presence of the ligand ([7]; ligand 30 μM): approximately 100 fold; unbound fraction of OTA with HSA ([7]; ligand 30 μM): 75%
O=c1cc(-c2ccccc2)oc2cc(O)cc(O)c12 [CHR, Chrysin]	strong decreases	only slightly decreased	strong decreases	weak displacing effects	–	only slightly decreased	only minor displacement	–	effect on kidney levels of OTA, in words [8]: did not cause statistically significant changes; effect on plasma levels of OTA, in words [8]: did not cause statistically significant changes
C[C@@H]1Cc2c(Cl)cc(C(=O)N[C@@H](Cc3ccccc3)C(=O)O)c(O)c2C(=O)O1 [OTA, Ochratoxin A]	–	–	–	–	–	–	–	–	free unbound fraction in the human circulation [10]: 0.02%; plasma elimination half-life in man [10]: approximately 35 days; association/binding constant of the OTA-HSA complex (HSA [11]): exceeds 10^7 L/mol; Kd (rat serum albumin (RSA) [6]; Ka of OTA-RSA complex, no competitor, OTA 1.0 μM, RSA up to 1.5 μM, PBS pH 7.4, 1:1 stoichiometry): 340 nM and 345 nM; Kd [7]: 40 nM; fold weaker complex with RSA compared to HSA (rat serum albumin (RSA) [12]): approximately 10 fold; binding constant of OTA-BSA complex [13]: > 10^6 L/mol; fold weaker complex with BSA compared to HSA [13]: approximately 10 fold
C=CC1=C(C)/C(=C/c2[nH]c(Cc3[nH]c(/C=C4\NC(=O)C(C)=C4C=C)c(C)c3CCC(=O)O)c(CCC(=O)O)c2C)NC1=O [bilirubin]	remarkable decreases	smaller, gradual decreases	remarkable decreases	moderate to strong displacement	–	smaller, gradual decreases	only a minor elevation	marked decreases	displacement of OTA from HSA (free fraction), in words ([7]; ligand 3 and 15 μM): no significant increase
O=C(CCCCC(=O)Nc1c(I)cc(I)c(C(=O)O)c1I)Nc1c(I)cc(I)c(C(=O)O)c1I [iodipamide]	only slightly modified	only slightly decreased	only slightly modified	weak displacing effects	–	only slightly decreased	only minor displacement	–	–
hemin	remarkable decreases	smaller, gradual decreases	remarkable decreases	–	better displacing effect than bilirubin	smaller, gradual decreases	–	marked decreases	displacement of OTA from RSA (free fraction), in words (rat serum albumin (RSA) [6]; ligand 15 and 30 μM): weak to moderate impacts
